The text below walks through data of patent publication US10568876B2, “Tetrahydroisoquinoline derivatives useful as inhibitors of diacylglyceride O-acyltransferase 2” (Merck Sharp & Dohme Corp., priority 2014, dated 2020).

Molecules are shown by their SMILES.

For orientation: IC50 means the concentration at which inhibition is half-maximal.

hDGAT2, sequence (Q96PD7 whole entry): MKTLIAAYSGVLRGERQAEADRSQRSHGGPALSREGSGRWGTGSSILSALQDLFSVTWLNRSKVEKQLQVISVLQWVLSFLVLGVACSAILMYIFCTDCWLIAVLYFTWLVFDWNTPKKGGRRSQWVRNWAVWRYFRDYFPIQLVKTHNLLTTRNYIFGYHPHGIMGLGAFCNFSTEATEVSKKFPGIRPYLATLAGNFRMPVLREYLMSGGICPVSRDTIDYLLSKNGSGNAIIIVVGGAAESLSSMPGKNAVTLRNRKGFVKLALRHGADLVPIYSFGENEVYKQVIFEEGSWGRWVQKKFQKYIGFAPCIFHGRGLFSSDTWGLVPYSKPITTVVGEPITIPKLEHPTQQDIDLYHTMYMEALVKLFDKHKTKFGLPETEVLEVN

The experiment has as its target hDGAT2 (Homo sapiens (Human), UniProt Q96PD7). Put plainly: DGAT2 Enzymatic Activity Assay. Format: biochemical. To be noted: hDGAT2 Sf-9 membrane prep; 25 μM diolein, 10 μM oleoyl-CoA; triolein product by LC/MS/MS; read-out: IC50 values for inhibition of DGAT2. How it is done: Sf-9 insect cells were maintained in Grace's insect cell culture medium with 10% heated-inactivated fetal bovine serum, 1% Pluronic F-68 and 0.14 μg/ml Kanamycine sulfate in Erlenmeyer flasks at 28° C. in a shaker incubator. After infection with untagged hDGAT2 baculovirus at multiplicity of infection (MOI) 0.1 for 48 hours, cells were harvested. Cell pellets were suspended in buffer containing 10 mM Tris-HCl (pH 7.5), 1 mM EDTA (pH 8.0), 250 mM sucrose and Complete Protease Inhibitor Cocktail (Roche Diagnostics Corp., Indianapolis, Ill.), and sonicated on ice. Membrane fractions were isolated by ultracentrifugation (100,000×g pellet), resuspended in the same buffer, and frozen (−80° C.) for later use. The protein concentration was determined with the BCA Protein Assay kit (Pierce Biotechnology Inc., Rockford, Ill.). Expression of protein levels was analyzed by immunoblotting with goat polyclonal DGAT2 antibody C-15 and donkey anti-goat IgG HRP (Santa Cruz Biotechnology, Inc., Santa Cruz, Calif.) followed by detection with ECL reagent (GE Healthcare, Piscataway, N.J.).
LC/MS/MS analyses were performed using Thermal Fisher's LX4-TSQ Vantage system. This system consists of an Agilent binary high-performance liquid chromatography (HPLC) pumps and a TSQ Vantage triple quadrupole MS/MS instrument. For each sample, 2 μL, samples from the top organic layer of in-plate liquid-liquid extraction were injected onto a Thermo Betabasic C4 column (2.1 mm×20 mm, 5 μm particle size). The samples were then eluted using the following conditions; mobile phase: methanol/water with 0.1% ammonium format=92/8 (v/v), flow rate: 1 mL/min, temperature: 25 C. Data was acquired in positive mode using a heated electrospray ionization (HESI) interface. The operational parameters for the TSQ Vantage MS/MS instrument were a spray voltage of 3000 V, capillary temperature of 280° C., vaporizer temperature 400° C., shealth gas 60 arbitrary unit, Aux gas 40 arbitrary units, S-lens 113 and collision gas 0.16 Pascals. […] (SRM) chromatograms of triolein (Q1: 902.9>Q3: 602.3) and internal standard (Q1: 902.9>Q3: 602.3) were collected for 40 sec. The peak area was integrated by Xcalibur Quan software. The ratio between the triolein generated in the reaction and spiked in internal standard were used to generate percentage inhibition and IC50 values. Compound percentage inhibition was calculated by the following formula: Inhibition %=1-[(compound response low control)/(high control low control)]×100%. Potent compounds were titrated and IC50 were calculated by 4 parameter sigmoidal curve fitting formula.
DGAT2 activity was determined by measuring the amount of enzymatic product triolein (1,2,3-Tri(cis-9-octadecenoyl)glycerol) using the membrane prep mentioned above. The assay was carried out in deep well 384 plates in a final volume of 40 μL at room temperature. The assay mixture contained the following: assay buffer (100 mM Tris.Cl, pH 7.0, 20 mM MgCl2, 5% ethanol), 25 μM of diolein, 10 μM of oleoyl-CoA and 10 ng/μL of DGAT2 membrane.
On to `CCOC(=O)c1cncc(-c2ccc(CNC(=O)[C@@H]3C[C@H]3c3ccccc3)c3c2CCN(C(=O)NC(C)(C)C)C3)c1` (relative stereo) [Example 46, ethyl 5-(2-(tert-butylcarbamoyl)-8-(((trans)-2-phenylcyclopropanecarboxamido)methyl)-1,2,3,4-tetrahydroisoquinolin-5-yl)nicotinate], for which the half-maximal inhibitory concentration (IC50) was found to be 0.66 nM.
The result for `CC(C)(C)NC(=O)N1CCc2c(-c3cncc(C(F)(F)F)c3)ccc(CNC(=O)[C@@H]3C[C@H]3c3ccccc3)c2C1` (relative stereo) [Example 47, N-(tert-butyl)-8-(((trans)-2-phenylcyclopropanecarboxamido)methyl)-5-(5-(trifluoromethyl)pyridin-3-yl)-3,4-dihydroisoquinoline-2(1H)-carboxamide] reads 173 nM; that for `CC(C)(C)NC(=O)N1CCc2c(-c3cccc(-n4nccn4)c3)ccc(CNC(=O)[C@@H]3C[C@H]3c3ccccc3)c2C1` (relative stereo) [Example 48, 5-(3-(2H-1,2,3-triazol-2-yl)phenyl)-N-(tert-butyl)-8-(((trans)-2-phenylcyclopropanecarboxamido)methyl)-3,4-dihydroisoquinoline-2(1H)-carboxamide], 97.6 nM; that for `CC(C)(C)NC(=O)N1CCc2c(-c3cccc(-c4nnco4)c3)ccc(CNC(=O)[C@@H]3C[C@H]3c3ccccc3)c2C1` (relative stereo) [Example 49, 5-(3-(1,3,4-oxadiazol-2-yl)phenyl)-N-(tert-butyl)-8-(((trans)-2-phenylcyclopropanecarboxamido)methyl)-3,4-dihydroisoquinoline-2(1H)-carboxamide], 10.4 nM.
In the case of `CC(C)(C)NC(=O)N1CCc2c(-c3cccc(-n4cncn4)c3)ccc(CNC(=O)[C@@H]3C[C@H]3c3ccccc3)c2C1` (relative stereo) [Example 50, 5-(3-(1H-1,2,4-triazol-1-yl)phenyl)-N-(tert-butyl)-8-(((trans)-2-phenylcyclopropanecarboxamido)methyl)-3,4-dihydroisoquinoline-2(1H)-carboxamide], the 50% inhibitory concentration (IC50) amounted to 9.3 nM.
`CC(C)(C)NC(=O)N1CCc2c(-c3cccc(C(C)(C)O)c3)ccc(CNC(=O)[C@@H]3C[C@H]3c3ccccc3)c2C1` (relative stereo) [Example 52, N-(tert-butyl)-5-(3-(2-hydroxypropan-2-yl)phenyl)-8-(((trans)-2-phenylcyclopropanecarboxamido)methyl)-3,4-dihydroisoquinoline-2(1H)-carboxamide]: the IC50 is 20.2 nM.
Consider `COc1cccc(-c2ccc(CNC(=O)[C@@H]3C[C@H]3c3nc(C)no3)c3c2CCN(C(=O)NC2(C)COC2)C3)c1` (relative stereo) [Example 53, 5-(3-methoxyphenyl)-8-(((trans)-2-(3-methyl-1,2,4-oxadiazol-5-yl)cyclopropanecarboxamido)methyl)-N-(3-methyloxetan-3-yl)-3,4-dihydroisoquinoline-2(1H)-carboxamide], for which the IC50 was found to be 13.4 nM.
In the case of `COC(=O)c1cccc(-c2ccc(CNC(=O)[C@H]3C[C@@H]3c3ccccc3)c3c2CCN(C(=O)NC2(C)CC2)C3)c1` (relative stereo) [Example 54, methyl 3-(2-((1-methylcyclopropyl)carbamoyl)-8-(((trans)-2-phenylcyclopropanecarboxamido)methyl)-1,2,3,4-tetrahydroisoquinolin-5-yl) benzoate], the IC50 came to 1.13 nM.
With `COC(=O)c1cccc(-c2ccc(CNC(=O)[C@@H]3C[C@H]3c3ccccc3)c3c2CCN(C(=O)NC2(C)CCCC2)C3)c1` (relative stereo) [Example 55, methyl 3-(2-((1-methylcyclopentyl)carbamoyl)-8-(((trans)-2 phenylcyclopropanecarboxamido)methyl)-1,2,3,4-tetrahydroisoquinolin-5-yl) benzoate] the figure was 10 nM.
